{"source": "paper PMC3408453", "about": "“A Foldamer-Dendrimer Conjugate Neutralizes Synaptotoxic β-Amyloid Oligomers” (PLoS ONE, 2012)", "key": {"Aβ oligomers [1]": {"molecular_target": "T1, Aβ oligomers (Homo sapiens, UniProt P05067)", "T1 construct": "a depsipeptide derivative of Aβ(1–42) was utilized; made in house; host or cells: chemical peptide synthesis (no expression host)", "assay": "Precipitation study at 1 µM Aβ oligomer, supernatant Aβ by ELISA", "conditions": "1 µM Aβ oligomer, 0.2, 0.5 and 1.0 equivalents of ligand, 15000× g, 3 h", "description": "The extent of precipitation was also tested at an Aβ oligomer concentration of 1 µM. The Aβ oligomer sample was mixed with 0, 0.2, 0.5 and 1.0 equivalents of 7, centrifuged at 15000× g for 3 h and the supernatant was tested for residual Aβ concentration by using a standard ELISA (Figure 11).\nAβ concentrations determined by ELISA in supernatants obtained from samples containing 1 µM Aβ oligomer mixed with 0, 0.2, 0.5 and 1.0 equivalents of 7 and centrifuged at 15000×g (room temperature, 3 h).\n1 μM solution of the Aβ oligomer sample was prepared. This solution was divided to 4×15 ml fractions and 7 was added to three samples in 1, 0.5 or 0.2 μM final concentration, respectively. All the four samples were divided into […] (2×5 ml). One fraction from each sample was centrifuged at 15000×g at RT for 3 hours in a Roth MIKRO 200 Microcentrifuge (Carl-Roth GmbH Karlsruhe, Germany) centrifuge. […]\nDifferent amounts of Aβ (0.0001, 0.0003, 0.001, 0.003, 0.01, 0.03, 0.1, 0.3 µg pro well) were coated in the wells (6 parallels for each concentration) of a 96 well plate. […] Without using a stopping reagent, the absorbance at 370 nm was constantly monitored using a FLUOstar OPTIMA Multidetection Microplate Reader (BMG LABTECH, Offenburg, Germany). Data values were read at the saturation point of the signal curves. The supernatants were analysed according to the concentration calibration."}, "Aβ oligomers [2]": {"molecular_target": "T1, Aβ oligomers", "assay": "Transmission electron microscopy of Aβ oligomers with ligand", "conditions": "72 µM Aβ oligomer + 36 µM ligand", "description": "The concentration-dependent increase of the particle size described above raised the question if this phenomenon was linked to an accelerated fibrillization or to any form of conformational remodeling of the Aβ oligomers. […] The shape of the aggregates was unequivocally different from that of the mature fibrils.\nFigure 8 Affinity precipitation as detected by TEM. (A) TEM image of the 72 µM Aβ oligomer. (B) TEM image of the 72 µM Aβ oligomer upon addition of 36 µM 7.\nOligomer solution was placed on formvar-carbon-coated 400-mesh copper grids (Electron Microscopy Sciences, Washington, PA) and stained negatively with uranyl acetate. The aggregates were characterized by TEM on a Philips CM 10 transmission electron microscope (FEI Company, Hillsboro, Oregon, USA) operating at 100 kV. Images were taken with a Megaview II Soft Imaging System, routinely at magnifications of ×46000 and ×64000, and analyzed with an AnalySis® 3.2 software package (Soft Imaging System GmbH, Münster, Germany)."}, "[3]": {"molecular_target": "T2, Aβ oligomers (HMW and LMW fractions) (Homo sapiens, UniProt P05067)", "T2 construct": "a depsipeptide derivative of Aβ(1–42) was utilized; made in house; host or cells: chemical peptide synthesis (no expression host)", "assay": "SEC analysis of Aβ oligomer – ligand mixtures (affinity precipitation)", "conditions": "50 µM Aβ oligomers, injected after filtration", "description": "This hypothesis was tested via SEC analysis (Figure 10A). Mixtures of 50 µM Aβ oligomers with 7 in 0.25 and 1.0 equivalents were injected on the SEC column after filtration. […] We concluded that the affinity precipitation occurs for the HMW component, but the LMW fraction is also affected at higher ligand concentrations. […] Thus it was possible to test if the LMW fraction co-elutes with 7. […] The HMW precipitate was also tested for the presence of 7 with LC-MS, and the result confirmed the heterocomplex nature of the product (Figure 10C).\nFigure 10 Lower tendency of the LMW Aβ oligomer fraction to affinity precipitation. (A) SEC analysis of pure Aβ oligomers (black) and mixtures of 50 µM Aβ oligomers with 7 in 0.25 (green) and 1.0 (blue) equivalents. The samples were injected on the SEC column after filtration. […] (B) LC-MS results on the LMW fraction taken at 19 min. […] (C) LC-MS results on the HMW precipitate, which confirmed the heterocomplex nature of the product.\niso-Aβ(1–42) was dissolved in sodium hydrocarbonate buffered saline (pH 7.4) to 50 µM and incubated for 24 h at 37°C. The oligomeric Aβ was loaded onto an Äkta Purifier FPLC system (GE Healthcare, UK) equipped with a Superose 6 10 300 column. Sample was eluted at a flow rate of 0.5 ml/min. FPLC chromatogram was taken at 280 nm and 1 ml fractions were collected during the separation."}}}
{"smiles": "N=C(N)NCCC[C@@H](CC(=O)N[C@H]1CCCC[C@@H]1C(=O)N[C@H]1CCCC[C@@H]1C(=O)N[C@@H](CC(=O)O)CC(=O)N[C@H]1CCCC[C@@H]1C(=O)NCC(=O)NCC(=O)N[C@@H](CSC1CC(=O)N(CCC(=O)NCCNC(=O)CCN(CCC(=O)NCCNC(=O)CCN2C(=O)CC(SC[C@H](NC(=O)CNC(=O)CNC(=O)[C@H]3CCCC[C@@H]3NC(=O)C[C@H](CC(=O)O)NC(=O)[C@H]3CCCC[C@@H]3NC(=O)[C@H]3CCCC[C@@H]3NC(=O)C[C@H](CCCNC(=N)N)NC(=O)[C@H]3CCCC[C@@H]3N)C(N)=O)C2=O)CCN(CCC(=O)NCCNC(=O)CCN2C(=O)CC(SC[C@H](NC(=O)CNC(=O)CNC(=O)[C@H]3CCCC[C@@H]3NC(=O)C[C@H](CC(=O)O)NC(=O)[C@H]3CCCC[C@@H]3NC(=O)[C@H]3CCCC[C@@H]3NC(=O)C[C@H](CCCNC(=N)N)NC(=O)[C@H]3CCCC[C@@H]3N)C(N)=O)C2=O)CCC(=O)NCCNC(=O)CCN2C(=O)CC(SC[C@H](NC(=O)CNC(=O)CNC(=O)[C@H]3CCCC[C@@H]3NC(=O)C[C@H](CC(=O)O)NC(=O)[C@H]3CCCC[C@@H]3NC(=O)[C@H]3CCCC[C@@H]3NC(=O)C[C@H](CCCNC(=N)N)NC(=O)[C@H]3CCCC[C@@H]3N)C(N)=O)C2=O)C1=O)C(N)=O)NC(=O)[C@H]1CCCC[C@@H]1N", "note": "(stereo partly shown) [Compound 7]", "values": [{"measurement": "Loss of soluble Aβ after centrifugation (supernatant ELISA)", "setting": "Aβ oligomers [1]", "value": "no significant loss of soluble material"}, {"measurement": "TEM: effect on Aβ oligomer particle morphology", "setting": "Aβ oligomers [2]", "value": "caused association of the spherical oligomers a few nm in size into bundles of aggregates in the μm range"}, {"measurement": "SEC: effect on HMW and LMW Aβ fractions at 0.25 equivalents of ligand", "setting": "[3]; 0.25 equivalents", "value": "the HMW fraction fully precipitated and disappeared from the SEC chromatogram, whereas the LMW fraction remained intact"}, {"measurement": "SEC: effect on HMW and LMW Aβ fractions at 1.0 equivalents of ligand", "setting": "[3]; 1.0 equivalents", "value": "the HMW fraction again disappeared and a partial decrease was observed for the LMW fraction"}]}
